Ki data for 34 compounds are collected here from patent US20110086834A1, “ALKYNYL ALCOHOLS AS KINASE INHIBITORS” (AMGEN INC., priority 2008, published 2011).

The experiment has as its target T1, NIK (Homo sapiens, UniProt Q99558).
T1 construct: Both assays utilize a truncated form of NIK containing only the catalytic domain; made in house; host or cells: baculovirus expression system (insect cells implied)
The experiment in a line: homogenous time resolved fluorescence (HTRF) assay for NIK Ki measurement. In kind it is biochemical. The settings on record: truncated NIK (catalytic domain only), autophosphorylation; 10 nM enzyme; 20, 100, 200 or 500 μM ATP; room temperature, 2 hours; read-out: Ki activity in the homogenous time resolved fluorescence (HTRF) assay for NIK. The procedure:
Two formats of biochemical assays are implemented: (1) chemiluminescent (CL) assay for NIK IC50 determination; (2) homogenous time resolved fluorescence (HTRF) assay for NIK Ki measurement. […] The NIK proteins are purified with baculovirus expression system and further biotinylated with N-hydroxysuccinamide biotin ester (Sigma). […] The reaction mixtures are then immobilized on a Streptavidin-coated plate (Pierce). […] For the HTRF assay, 10 nM of enzyme are incubated with compounds in the presence of 20, 100, 200, or 500 μM of ATP in a buffer with 20 mM of Hepes pH7.5, 20 mM of MgCl2, 0.2% of Tween 20 and 1 mM of DTT at room temperature for 2 hours.

T1 sequence (Q99558 400-655 limits assumed): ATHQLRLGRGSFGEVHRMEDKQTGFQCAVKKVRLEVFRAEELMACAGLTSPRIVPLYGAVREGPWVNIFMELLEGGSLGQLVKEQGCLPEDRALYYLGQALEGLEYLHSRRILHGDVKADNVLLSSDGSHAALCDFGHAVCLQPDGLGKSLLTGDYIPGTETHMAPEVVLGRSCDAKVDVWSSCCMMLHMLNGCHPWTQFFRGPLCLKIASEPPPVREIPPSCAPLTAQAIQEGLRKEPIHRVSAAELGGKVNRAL

Take `C[C@](O)(C#Cc1ccc2c(c1)N(c1nc(N)ncc1Cl)CC21CCOCC1)c1nccs1` (single isomer, unassigned) [Example 209a]: the inhibitory constant (Ki) lay within 1 to 30 µM.
With `Cc1cc([C@](C)(O)C#Cc2ccc3c(c2)N(c2nc(N)ncc2Cl)CC32CCOCC2)no1` (single isomer, unassigned) [Example 211] the figure was less than 1 µM; with `Cc1cc([C@@](C)(O)C#Cc2ccc3c(c2)N(c2nc(N)ncc2Cl)CC32CCOCC2)no1` (single isomer, unassigned) [Example 211a], 1 to 30 µM; with `C[C@](O)(C#Cc1ccc2c(c1)N(c1nc(N)ncc1Cl)C[C@@]21CCOC1)c1nccs1` (stereo in doubt) [Example 199, (2S)-4-((3R*)-1′-(2-Amino-5-chloro-4-pyrimidinyl)-1′,2′,4,5-tetrahydrospiro[furan-3,3′-indol]-6′-yl)-2-(1,3-thiazol-2-yl)-3-butyn-2-ol], 1 to 30 µM.
Consider `C[C@@](O)(C#Cc1ccc2c(c1)N(c1nc(N)ncc1Cl)C[C@]21CCOC1)c1nccs1` (stereo in doubt) [Example 202, (2R)-4-((3S*)-1′-(2-Amino-5-chloro-4-pyrimidinyl)-1′,2′,4,5-tetrahydrospiro[furan-3,3′-indol]-6′-yl)-2-(1,3-thiazol-2-yl)-3-butyn-2-ol], for which the Ki is less than 1 µM.
With `Cc1noc(C(C)(O)C#Cc2ccc3c(c2)N(c2nc(N)ncc2Cl)CC3)n1` (stereo not shown) [Example 1, 4-(1-(2-amino-5-chloropyrimidin-4-yl)indolin-6-yl)-2-(3-methyl-1,2,4-oxadiazol-5-yl)but-3-yn-2-ol] the figure was less than 1 µM; with `Cc1nc(C(C)(O)C#Cc2ccc3c(c2)N(c2nc(N)ncc2Cl)CC3)no1` (stereo not shown) [Example 2, 4-(1-(2-amino-5-chloropyrimidin-4-yl)indolin-6-yl)-2-(5-methyl-1,2,4-oxadiazol-3-yl)but-3-yn-2-ol], less than 1 µM.
In the case of `Cc1cc(C(C)(O)C#Cc2ccc3c(c2)N(c2nc(N)ncc2Cl)CC3(C)C)no1` (stereo not shown) [Example 3, 4-(1-(2-amino-5-chloropyrimidin-4-yl)-3,3-dimethylindolin-6-yl)-2-(5-methylisoxazol-3-yl)but-3-yn-2-ol], the Ki is less than 1 µM.
For `CC(O)(C#Cc1ccc2c(c1)N(c1nc(N)ncc1Cl)CC2)c1cnccn1` (stereo not shown) [Example 4, 4-(1-(2-amino-5-chloropyrimidin-4-yl)indolin-6-yl)-2-(pyrazin-2-yl)but-3-yn-2-ol] the value was less than 1 µM; for `Cc1ccnc(C(C)(O)C#Cc2ccc3c(c2)N(c2nc(N)ncc2Cl)CC3)c1` (stereo not shown) [Example 5, 4-(1-(2-amino-5-chloropyrimidin-4-yl)indolin-6-yl)-2-(4-methylpyridin-2-yl)but-3-yn-2-ol], less than 1 µM.
`Cc1nonc1C(C)(O)C#Cc1ccc2c(c1)N(c1nc(N)ncc1Cl)CC2` (stereo not shown) [Example 6, 4-(1-(2-amino-5-chloropyrimidin-4-yl)indolin-6-yl)-2-(4-methyl-1,2,5-oxadiazol-3-yl)but-3-yn-2-ol]: the Ki was in the range of 1 to 30 µM.
Consider `CC(O)(C#Cc1ccc2c(c1)N(c1nc(N)ncc1Cl)CC2)c1ncc(CO)s1` (stereo not shown) [Example 8, 4-(1-(2-amino-5-chloropyrimidin-4-yl)indolin-6-yl)-2-(5-(hydroxymethyl)thiazol-2-yl)but-3-yn-2-ol], for which the Ki was less than 1 µM.
With `CC(O)(C#Cc1ccc2c(c1)N(c1nc(N)ncc1Cl)CC2)c1nc(C#N)cs1` (stereo not shown) [Example 9, 2-(4-(1-(2-amino-5-chloropyrimidin-4-yl)indolin-6-yl)-2-hydroxybut-3-yn-2-yl)thiazole-4-carbonitrile] the figure was 1 to 30 µM.
For `CC(O)(C#Cc1ccc2c(c1)N(c1nc(N)ncc1Cl)CC2)c1cc(N2CCCCC2)ccn1` (stereo not shown) [Example 10, 4-(1-(2-amino-5-chloropyrimidin-4-yl)indolin-6-yl)-2-(4-(piperidin-1-yl)pyridin-2-yl)but-3-yn-2-ol] the value was 1 to 30 µM; for `CC(O)(C#Cc1ccc2c(c1)N(c1nc(N)ncc1Cl)CC2)c1cc(F)ccn1` (stereo not shown) [Example 11, 4-(1-(2-amino-5-chloropyrimidin-4-yl)indolin-6-yl)-2-(4-fluoropyridin-2-yl)but-3-yn-2-ol], 1 to 30 µM.
`CC(O)(C#Cc1ccc2c(c1)N(c1ncns1)CC2(C)C)c1nccs1` (stereo not shown) [Example 12, 4-(3,3-dimethyl-1-(1,2,4-thiadiazol-5-yl)indolin-6-yl)-2-(thiazol-2-yl)but-3-yn-2-ol]: the Ki was less than 1 µM.
With `CC(O)(C#Cc1ccc2c(c1)N(c1ncns1)CC2(C)C)c1cnccn1` (stereo not shown) [Example 13, 4-(3,3-dimethyl-1-(1,2,4-thiadiazol-5-yl)indolin-6-yl)-2-(pyrazin-2-yl)but-3-yn-2-ol] the figure was less than 1 µM; with `Cc1cc([C@](C)(O)C#Cc2ccc3c(c2)N(c2ncns2)CC3(C)C)no1` [Example 14, (R)-4-(3,3-dimethyl-1-(1,2,4-thiadiazol-5-yl)indolin-6-yl)-2-(5-methylisoxazol-3-yl)but-3-yn-2-ol], less than 1 µM; with `Cc1cc([C@@](C)(O)C#Cc2ccc3c(c2)N(c2ncns2)CC3(C)C)no1` [Example 15, (S)-4-(3,3-dimethyl-1-(1,2,4-thiadiazol-5-yl)indolin-6-yl)-2-(5-methylisoxazol-3-yl)but-3-yn-2-ol], less than 1 µM.
For `Nc1ncc(Cl)c(N2CCc3ccc(C#CC4(O)CCCC4)cc32)n1` [Example 16, 1-(2-(1-(2-amino-5-chloropyrimidin-4-yl)indolin-6-yl)ethynyl)cyclopentanol] the value was less than 1 µM; for `COCCOc1ccc(Nc2ncnc(N3CC(C)(C)c4ccc(C#CC5(O)CCCC5)cc43)n2)cc1` [Example 17, 1-(2-(1-(4-(4-(2-methoxyethoxy)phenylamino)-1,3,5-triazin-2-yl)-3,3-dimethylindolin-6-yl)ethynyl)cyclopentanol], 1 to 30 µM.
With `COc1cc(C#CC2(O)CCCC2)cc2c1CCN2c1nc(N)ncc1F` [Example 18, 1-(2-(1-(2-amino-5-fluoropyrimidin-4-yl)-4-methoxyindolin-6-yl)ethynyl)cyclopentanol], the Ki was less than 1 µM.
For `CC(=O)Nc1cc(C#CC2(O)CCCC2)cc2c1CCN2c1nc(N)ncc1Cl` [Example 19, N-(1-(2-amino-5-chloropyrimidin-4-yl)-6-(2-(1-hydroxycyclopentyl)ethynyl)indolin-4-yl)acetamide] the value was less than 1 µM.
For `Cc1cc(C(C)(O)C#Cc2ccc3c(c2)N(c2ccnc(N)n2)CC3)no1` (stereo not shown) [Example 20, 4-(1-(2-aminopyrimidin-4-yl)indolin-6-yl)-2-(5-methylisoxazol-3-yl)but-3-yn-2-ol] the value was less than 1 µM; for `CC(O)(C#Cc1ccc2c(c1)N(c1ccnc(N)n1)CC2)C1CCC1` (stereo not shown) [Example 21, 4-(1-(2-aminopyrimidin-4-yl)indolin-6-yl)-2-cyclobutylbut-3-yn-2-ol], less than 1 µM; for `CCc1csc(C(C)(O)C#Cc2ccc3c(c2)N(c2nc(N)ncc2Cl)CC3)c1` (stereo not shown) [Example 22, 4-(1-(2-amino-5-chloropyrimidin-4-yl)indolin-6-yl)-2-(4-ethylthiophen-2-yl)but-3-yn-2-ol], less than 1 µM.
With `Cn1ccc(C(C)(O)C#Cc2ccc3c(c2)N(c2nc(N)ncc2Cl)CC3)n1` (stereo not shown) [Example 26, 4-(1-(2-amino-5-chloropyrimidin-4-yl)indolin-6-yl)-2-(1-methyl-1H-pyrazol-3-yl)but-3-yn-2-ol] the figure was less than 1 µM.
Regarding `C[C@@](O)(C#Cc1ccc2c(c1)N(c1ncncc1Cl)CC21CCOCC1)c1nccs1` [Example 32, (2R)-4-[1-(5-chloropyrimidin-4-yl)-1,2,2′,3′,5′,6′-hexahydrospiro[indole-3,4′-pyran]-6-yl]-2-(1,3-thiazol-2-yl)but-3-yn-2-ol], the Ki was less than 1 µM.
With `C[C@@](O)(C#Cc1ccc2c(c1)N(c1ccncn1)CC21CCOCC1)c1nccs1` [Example 33, (2R)-4-(1-pyrimidin-4-yl-1,2,2′,3′,5′,6′-hexahydrospiro[indole-3,4′-pyran]-6-yl)-2-(1,3-thiazol-2-yl)but-3-yn-2-ol] the figure was less than 1 µM; with `CC(O)(C#Cc1ccc2c(c1)N(c1nc(N)ncc1Cl)CC2)c1ncc(C#N)s1` (stereo not shown) [Example 34, 2-(4-(1-(2-amino-5-chloropyrimidin-4-yl)indolin-6-yl)-2-hydroxybut-3-yn-2-yl)thiazole-5-carbonitrile], less than 1 µM.
With `CC(O)(C#Cc1ccc2c(c1)N(c1nc(N)ncc1Cl)CC2)c1nc(CO)cs1` (stereo not shown) [Example 35, 4-(1-(2-amino-5-chloropyrimidin-4-yl)indolin-6-yl)-2-(4-(hydroxymethyl)thiazol-2-yl)but-3-yn-2-ol] the figure was 1 to 30 µM.
With `CN1CCOC2(C1)CN(c1nc(N)ncc1Cl)c1cc(C#C[C@@](C)(O)c3nccs3)ccc12` (stereo partly drawn) [Example 36, (2R)-4-[1-(2-amino-5-chloropyrimidin-4-yl)-4′-methyl-1,2-dihydrospiro[indole-3,2′-[1,4]oxazinan]-6-yl]-2-(1,3-thiazol-2-yl)but-3-yn-2-ol] the figure was less than 1 µM.
With `CC(O)(C#Cc1ccc2c(c1)N(c1ncncn1)CC21CCOCC1)c1nccs1` (stereo not shown) [Example 37, 2-(1,3-thiazol-2-yl)-4-(1-(1,3,5-triazin-2-yl)-1,2,2′,3′,5′,6′-hexahydrospiro[indole-3,4′-pyran]-6-yl)-3-butyn-2-ol], the Ki was less than 1 µM.
For `CC(O)(C#Cc1ccc2c(c1)N(c1ncncn1)CC2(C)C)c1nccs1` (stereo not shown) [Example 38, 4-(3,3-dimethyl-1-(1,3,5-triazin-2-yl)-2,3-dihydro-1H-indol-6-yl)-2-(1,3-thiazol-2-yl)-3-butyn-2-ol] the value was less than 1 µM.
